Paper PMC11945486, “TAS1R2/TAS1R3 Single-Nucleotide Polymorphisms Affect Sweet Taste Receptor Activation by Sweeteners: The SWEET Project” (Nutrients, 2025)

Target: T1, human TAS1R2-P21L (subunit alone) (Homo sapiens, UniProt Q8TE23, P21L)
T1 construct: expressed in transfected cells; host or cells: HEK293T-Gα16gust44
T1 sequence (Q8TE23 20-839 P21L): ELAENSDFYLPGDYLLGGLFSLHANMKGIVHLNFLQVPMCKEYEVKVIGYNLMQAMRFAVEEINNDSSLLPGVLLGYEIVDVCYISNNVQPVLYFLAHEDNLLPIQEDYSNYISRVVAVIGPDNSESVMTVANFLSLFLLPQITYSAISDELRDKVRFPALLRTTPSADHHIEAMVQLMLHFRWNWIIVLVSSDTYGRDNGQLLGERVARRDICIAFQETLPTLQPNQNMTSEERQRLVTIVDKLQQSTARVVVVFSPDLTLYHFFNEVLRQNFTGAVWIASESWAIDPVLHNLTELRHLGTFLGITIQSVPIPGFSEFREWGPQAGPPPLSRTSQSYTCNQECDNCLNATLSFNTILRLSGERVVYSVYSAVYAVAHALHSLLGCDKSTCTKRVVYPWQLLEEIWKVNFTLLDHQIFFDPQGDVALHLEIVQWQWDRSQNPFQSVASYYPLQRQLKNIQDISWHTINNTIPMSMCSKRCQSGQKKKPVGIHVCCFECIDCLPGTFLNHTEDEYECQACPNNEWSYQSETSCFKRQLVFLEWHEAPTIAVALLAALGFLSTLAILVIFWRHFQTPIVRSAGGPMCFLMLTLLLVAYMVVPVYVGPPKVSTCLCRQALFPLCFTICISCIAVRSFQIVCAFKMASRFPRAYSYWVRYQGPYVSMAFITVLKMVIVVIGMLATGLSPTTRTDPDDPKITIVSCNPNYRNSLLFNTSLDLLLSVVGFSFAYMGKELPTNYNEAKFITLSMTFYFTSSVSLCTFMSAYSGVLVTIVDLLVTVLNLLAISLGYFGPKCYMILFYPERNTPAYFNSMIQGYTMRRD
Assay: Calcium mobilisation assay, TAS1R2-P21L subunit alone
Assay type: cell-based
Source text: The coding sequences for TAS1R2 and TAS1R3 were commercially synthesised, and the human codon was optimised for expression in human cells. The coding sequences of human TAS1R2 and TAS1R3 were subcloned and inserted into the mammalian expression vectors pcDNA6/myc-HisA and pcDNA4/myc-HisA (Invitrogen; Thermo Fisher Scientific; Illkirch, France) between the EcoRI and NotI restriction sites, generating the plasmids pcDNA6-TAS1R2 and pcDNA4-TAS1R3, respectively. To increase protein expression in mammalian cells, an upstream start codon was used, which was a sequence called MAX, corresponding to the QBI SP163 element also described in pcDNA4-HisMax (Invitrogen; Thermo Fisher Scientific; Illkirch, France). To measure the expression level of the receptor by immunohistochemistry, we used the FLAG sequence ([…]) in the C-terminal position, which encodes the FLAG tag epitope. […]
The HEK293T cells were kindly provided by Jay P. Slack (Givaudan Flavors Corporation; Cincinnati, OH, USA). […] The fluorescence intensity was measured for 90 s (excitation 488 nm, emission 510 nm) in an automated fluorometric FlexStation®3 Multi-Mode microplate reader (Molecular Devices; San Jose, CA, USA). […] The Ca^2+ changes were expressed as fractional changes in fluorescent light intensity: ΔF/F = (F − F0)/F0, where F was the fluorescent light intensity at each point, and F0 was the value of emitted fluorescent light prior to stimulus application. To calculate dose–response relationships, the changes in fluorescence upon stimulus application were averaged, mock-subtracted and baseline-corrected. […] The half-maximal effective concentrations (EC50 values) and maximal signal amplitudes were calculated using SigmaPlot software (version 15.0) (Systat Software; San Jose, CA, USA).
For in vitro calcium mobilisation assay performed on hTAS1R2-SNPs, hTAS1R3-SNPs and mTAS1R3-I60T, 6 to 7 concentrations were tested for each sweet compound, plus buffer alone. All concentration–receptor combinations were measured in duplicate, and each experiment was repeated at least 4 times (8 wells/concentration). […]

- EC50: 149 ± 22.7 µM
- R1 = Variant EC50/WT EC50: 1.7
- Max ΔF/F0 (maximal signal amplitude): 0.33 ± 0.02
Compound: C=C(C)[C@@H]1CC=C(/C=N/O)CC1 [Perillartine, perillartine]
